The supplement of paper PMC10307832

Key:
Assay in all cases: relative viability (nuclei count vs DMSO), 5 days (fraction); higher = more cells survive
[1] = compound: C=CC(=O)N1CCC[C@@H](n2nc(-c3ccc(Oc4ccccc4)cc3)c3c(N)ncnc32)C1 [Ibrutinib] + CC1(C)CCC(c2ccc(Cl)cc2)=C(CN2CCN(c3ccc(C(=O)NS(=O)(=O)c4ccc(N[C@H](CCN5CCOCC5)CSc5ccccc5)c(S(=O)(=O)C(F)(F)F)c4)cc3)CC2)C1 [Navitoclax] (partner 0.5 µM)
Outline: (§1)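 Relative viability is defined as nuclei in treated wells over nuclei in vehicle wells. Duplicate plates were run and medians reported. Lung cancer cell lines in 1536-well plates were dosed by pin tool one day after seeding, with one drug or with a fixed anchor-drug dose plus five library-drug doses (not always all listed) in √10 steps, and nuclei were counted after 5 days.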

[2] = compound: C=CC(=O)N1CCC[C@@H](n2nc(-c3ccc(Oc4ccccc4)cc3)c3c(N)ncnc32)C1 [Ibrutinib] + N=C(N)NC(=N)NCCc1ccccc1 [Phenformin] (partner 250 µM)
Outline: as §1

[3] = compound: C=CC(=O)N1CCC[C@@H](n2nc(-c3ccc(Oc4ccccc4)cc3)c3c(N)ncnc32)C1 [Ibrutinib] + NC(=O)Nc1cc(-c2cccc(F)c2)sc1C(=O)N[C@H]1CCCNC1 [AZD7762] (partner 0.2 µM)
Outline: as §1

[4] = compound: C=CCc1cccc(/C=N/NC(=O)CN2CCN(Cc3ccccc3)CC2)c1O [PAC-1] + CC(C)C[C@H](NC(=O)[C@H](Cc1ccccc1)NC(=O)c1cnccn1)B(O)O [Bortezomib] (partner 0.002 µM)
Outline: as §1

Row | Cell Line | relative viability ([1]; first compound 0.005 µM) | relative viability ([1]; first compound 0.01581 µM) | relative viability ([1]; first compound 0.05 µM) | relative viability ([1]; first compound 0.1581 µM) | relative viability ([1]; first compound 0.5 µM) | relative viability ([2]; first compound 0.005 µM) | relative viability ([2]; first compound 0.01581 µM) | relative viability ([2]; first compound 0.05 µM) | relative viability ([2]; first compound 0.1581 µM) | relative viability ([2]; first compound 0.5 µM) | relative viability ([3]; first compound 0.005 µM) | relative viability ([3]; first compound 0.01581 µM) | relative viability ([3]; first compound 0.05 µM) | relative viability ([3]; first compound 0.1581 µM) | relative viability ([3]; first compound 0.5 µM) | relative viability ([4]; first compound 0.02 µM) | relative viability ([4]; first compound 0.06325 µM) | relative viability ([4]; first compound 0.2 µM) | relative viability ([4]; first compound 2 µM)
1 | 201T | 1.22 | 1.17 | 1.17 | 1.22 | 1.17 | 0.449 | 0.443 | 0.442 | 0.429 | 0.412 | 0.539 | 0.583 | 0.623 | 0.66 | 0.553 | 1.08 | 1.15 | 1.13 | 1.05
2 | A549 | 1.26 | 1.2 | 1.23 | 1.3 | 1.19 | 0.21 | 0.135 | 0.159 | 0.163 | 0.152 | – | – | – | – | – | – | – | – | –
3 | A-427 | 0.861 | 0.923 | 0.985 | 0.98 | 0.92 | 0.307 | 0.351 | 0.316 | 0.27 | 0.3 | 0.745 | 0.734 | 0.757 | – | 0.706 | 1.05 | 1.01 | 0.963 | 0.958
4 | ABC-1 | – | – | – | – | – | 0.185 | 0.271 | 0.214 | 0.24 | 0.29 | 0.904 | 0.863 | 0.807 | 0.759 | 0.695 | 0.336 | 0.371 | 0.258 | 0.319
5 | BEN | 0.0796 | 0.0705 | 0.0699 | 0.0622 | 0.0639 | – | 0.23 | 0.282 | 0.283 | 0.247 | 0.473 | 0.61 | 0.637 | 0.506 | 0.697 | 0.742 | 0.77 | 0.797 | 0.725
6 | CAL-12T | – | 1.16 | 1.33 | 1.37 | 0.951 | 0.546 | 0.447 | 0.362 | 0.651 | 0.35 | 0.701 | 0.69 | 0.544 | 0.616 | 0.766 | 0.95 | 1.09 | 1.1 | 0.925
7 | COR-L23 | 1.14 | 1 | 1.04 | 1.16 | 1.11 | 0.491 | 0.408 | 0.454 | 0.472 | 0.445 | – | – | – | – | – | 1.1 | 0.93 | 0.913 | 0.966
8 | COR-L 105 | 0.548 | 0.74 | 0.625 | 0.681 | 0.385 | 0.455 | 0.348 | 0.406 | 0.531 | 0.242 | – | – | – | – | – | 0.71 | 0.695 | 0.757 | 0.792
9 | Calu-6 | 0.954 | 0.746 | 0.771 | 0.955 | 0.756 | – | – | – | – | – | – | – | – | – | – | 1.07 | 1.09 | 1 | 1.1
10 | ChaGo-K-1 | 0.506 | 1.12 | 0.933 | – | 1.19 | 0.543 | 0.462 | 0.433 | 0.407 | 0.494 | 0.85 | 0.798 | 0.894 | 0.833 | 0.838 | 0.941 | 1.1 | 1.16 | 0.88
